Reference: ChEMBL document CHEMBL1770065, “Discovery of a clinical candidate from the structurally unique dioxa-bicyclo[3.2.1]octane class of sodium-dependent glucose cotransporter 2 inhibitors” (J Med Chem, 2011)

Assays:
[1] = Lipophilicity, log D of the compound; assay type: physicochemical; details: octanol/water
[2] = target: T1, Sodium/glucose cotransporter 2 (Homo sapiens, UniProt P31639); test: Inhibition of human SGLT2 expressed in CHO cells assessed as inhibition of methyl alpha-D-glucopyranoside uptake after 1 hr; assay type: cell-based
T1 sequence (P31639 whole entry): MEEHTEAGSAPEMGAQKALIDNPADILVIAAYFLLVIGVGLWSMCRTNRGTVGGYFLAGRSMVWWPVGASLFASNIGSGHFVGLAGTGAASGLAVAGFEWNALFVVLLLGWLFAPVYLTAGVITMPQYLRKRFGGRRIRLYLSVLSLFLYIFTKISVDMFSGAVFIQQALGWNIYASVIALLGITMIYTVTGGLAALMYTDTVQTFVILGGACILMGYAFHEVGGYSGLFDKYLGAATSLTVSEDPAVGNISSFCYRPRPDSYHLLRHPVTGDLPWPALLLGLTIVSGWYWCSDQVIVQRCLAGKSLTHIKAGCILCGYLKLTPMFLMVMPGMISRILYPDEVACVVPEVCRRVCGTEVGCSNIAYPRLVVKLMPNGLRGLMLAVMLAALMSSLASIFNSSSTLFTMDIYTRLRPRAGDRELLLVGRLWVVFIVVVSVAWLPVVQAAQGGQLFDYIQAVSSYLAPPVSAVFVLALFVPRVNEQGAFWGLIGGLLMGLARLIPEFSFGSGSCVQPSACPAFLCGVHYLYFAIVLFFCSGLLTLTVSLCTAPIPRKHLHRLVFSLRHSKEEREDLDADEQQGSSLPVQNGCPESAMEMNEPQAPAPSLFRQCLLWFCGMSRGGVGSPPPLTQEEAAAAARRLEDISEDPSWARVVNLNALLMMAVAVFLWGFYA

[3] = target: T2, Sodium/glucose cotransporter 1 (Homo sapiens, UniProt P13866); test: Inhibition of human SGLT1 expressed in CHO cells assessed as inhibition of methyl alpha-D-glucopyranoside uptake after 1 hr; assay type: cell-based
T2 sequence (P13866 whole entry): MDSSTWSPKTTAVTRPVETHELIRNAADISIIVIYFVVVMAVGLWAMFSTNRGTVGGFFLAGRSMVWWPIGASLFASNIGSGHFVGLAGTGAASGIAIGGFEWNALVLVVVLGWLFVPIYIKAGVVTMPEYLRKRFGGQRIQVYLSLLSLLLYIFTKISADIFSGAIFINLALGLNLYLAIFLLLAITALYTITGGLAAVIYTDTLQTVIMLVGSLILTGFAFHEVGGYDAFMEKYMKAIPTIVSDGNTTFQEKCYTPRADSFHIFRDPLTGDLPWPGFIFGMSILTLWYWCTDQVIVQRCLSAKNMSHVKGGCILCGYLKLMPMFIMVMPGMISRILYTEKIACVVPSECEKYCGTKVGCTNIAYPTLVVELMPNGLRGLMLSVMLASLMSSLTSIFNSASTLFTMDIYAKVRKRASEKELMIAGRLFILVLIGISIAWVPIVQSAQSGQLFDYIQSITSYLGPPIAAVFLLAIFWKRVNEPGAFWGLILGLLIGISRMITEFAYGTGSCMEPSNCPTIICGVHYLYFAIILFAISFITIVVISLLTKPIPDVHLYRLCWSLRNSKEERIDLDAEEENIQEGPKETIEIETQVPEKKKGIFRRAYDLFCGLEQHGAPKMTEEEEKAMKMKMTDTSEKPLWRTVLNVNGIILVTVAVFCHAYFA

[4] = Apparent intrinsic clearance in human liver microsomes assessed per mg of protein; assay type: ADME, Microsome
[5] = Apparent intrinsic clearance in human hepatocytes assessed per million of cells; assay type: ADME, cell-based, Liver, Hepatocyte
[6] = tested on: Rattus norvegicus; test: Hepatic clearance in Sprague-Dawley rat at 2 mg/kg, iv; assay type: ADME, organism-based, Liver; parameters: dose 2 mg/kg, route intravenous; details: in vivo
[7] = Half life in Sprague-Dawley rat at 2 mg/kg, iv; assay type: ADME, organism-based; parameters: dose 2 mg/kg, route intravenous; details: in vivo
[8] = Renal clearance in Sprague-Dawley rat at 2 mg/kg, iv; assay type: ADME, organism-based, Kidney; parameters: dose 2 mg/kg, route intravenous; details: in vivo
[9] = tested on: Plasma; test: Fraction unbound in human plasma at 1000 ng/mL by equilibrium dialysis method; assay type: ADME, cell-free
[10] = tested on: Plasma; test: Fraction unbound in rat plasma at 1000 ng/mL by equilibrium dialysis method; assay type: ADME, cell-free

| Compound | logD [1] | IC50 [2] [nM] | IC50 [3] [nM] | microsomal CLint [4] [µL/min/mg] | hepatocyte CLint [5] [µL/min/1e6 cells] | CL [6] [mL/min/kg] | half-life [7] [h] | CL renal [8] [mL/min/kg] | Fu [9] [%] | Fu [10] [%] |
| --- | --- | --- | --- | --- | --- | --- | --- | --- | --- | --- |
| COc1ccc(Cc2cc([C@]34OC[C@](CO)(O3)[C@@H](O)[C@H](O)[C@@H]4O)ccc2Cl)cc1 | 3.9 | 43.1 | > 10000 | 15 | 2.3 |  |  |  |  |  |
| CCOc1ccc(Cc2cc([C@]34OC[C@](CO)(O3)[C@@H](O)[C@H](O)[C@H]4O)ccc2C)cc1 | 3 | 1.11 | 958 | 8.9 | 2 |  |  |  |  |  |
| COc1ccc(Cc2cc([C@]34OC[C@](CO)(O3)[C@@H](O)[C@H](O)[C@H]4O)ccc2Cl)cc1 | 3.2 | 0.882 |  | 9.2 | 2 |  | 1.6 |  |  |  |
| CCOc1ccc(Cc2cc([C@]34OC[C@](CO)(O3)[C@@H](O)[C@H](O)[C@@H]4O)ccc2Cl)cc1 | 3.8 | 89.9 | > 10000 |  |  |  |  |  |  |  |
| COc1ccc(Cc2cc([C@]34OC[C@](CO)(O3)[C@@H](O)[C@H](O)[C@H]4O)ccc2C)cc1 | 2.6 | 1.07 | 506 | < 8 | 2.1 |  |  |  | 20.6 | 18.6 |

Continued, values first:

| logD [1] | IC50 [2] [nM] | IC50 [3] [nM] | microsomal CLint [4] [µL/min/mg] | hepatocyte CLint [5] [µL/min/1e6 cells] | CL [6] [mL/min/kg] | half-life [7] [h] | CL renal [8] [mL/min/kg] | Fu [9] [%] | Fu [10] [%] | Compound |
| --- | --- | --- | --- | --- | --- | --- | --- | --- | --- | --- |
| 3.2 |  |  | 32 | < 2 |  |  |  |  |  | CCc1ccc(Cc2cc([C@@H]3OC4(CNC4)[C@@H](O)[C@H](O)[C@H]3O)ccc2C)cc1 |
| 2.4 |  |  | < 8 | 3.4 |  |  |  |  |  | COc1ccc(Cc2cc([C@@H]3O[C@H](CO)[C@@H](O)[C@H](O)[C@H]3O)ccc2C)cc1 |
| 3 | 6.98 |  | 12 | 44 | 20.5 | 1.9 | 1.8 |  |  | COc1ccc(Cc2cc([C@@H]3OC4(COC4)[C@@H](O)[C@H](O)[C@H]3O)ccc2C)cc1 |
| 3 |  |  | < 9 | < 2 |  |  |  |  |  | COc1ccc(Cc2cc([C@@H]3O[C@H](CO)[C@@H](O)[C@H](O)[C@H]3O)ccc2Cl)cc1 |
